Source: patent US10730874B2 (Shire Human Genetic Therapies, Inc., priority 2018, dated 2020)
pEC50: −log10 of the molar value.

Target: human activated kallikrein enzyme (plasma kallikrein) (Homo sapiens (Human), UniProt P03952)
Test: Inhibition of human activated plasma kallikrein, fluorogenic peptide substrate assay, 500 pM enzyme format
Type: biochemical
Details: 500 pM activated kallikrein enzyme, 300 uM Pro-Phe-Arg-7-amido-4-methylcoumarin substrate, 30 min preincubation, 10 min at RT; read-out: Primary Dose Response Assay: Average EC50
Procedure: Example compounds were evaluated for inhibition of the human activated kallikrein enzyme in two formats of an assay employing a fluorogenic peptide substrate. In one assay format, the concentrations of reagents were as follows: 20 mM Tris pH 7.5, 1 mM EDTA, 150 mM sodium chloride, 0.1% PEG-400, 0.1% Triton X-100, 500 pM activated kallikrein enzyme, 300 uM Pro-Phe-Arg-7-amido-4-methylcoumarin substrate. Prior to reaction initiation with substrate, enzyme and inhibitors were preincubated for 30 min at RT. After initiation with substrate, reactions were incubated for 10 min at RT and fluorescence emission at 460 nm from 380 nm excitation measured with a microplate reader. In another assay format, the concentrations of reagents were as follows: 20 mM Tris pH 7.5, 1 mM EDTA, 150 mM sodium chloride, 0.1% PEG-400, 0.1% Triton X-100, 5 pM activated kallikrein enzyme, 300 uM Pro-Phe-Arg-7-amido-4-methylcoumarin substrate. Prior to reaction initiation with substrate, enzyme and inhibitors were preincubated for 30 min at RT. After initiation with substrate, reactions were incubated for 18 h at RT and fluorescence emission at 460 nm from 380 nm excitation measured with a microplate reader.

Sequence of human activated kallikrein enzyme (plasma kallikrein) (P03952 391-638): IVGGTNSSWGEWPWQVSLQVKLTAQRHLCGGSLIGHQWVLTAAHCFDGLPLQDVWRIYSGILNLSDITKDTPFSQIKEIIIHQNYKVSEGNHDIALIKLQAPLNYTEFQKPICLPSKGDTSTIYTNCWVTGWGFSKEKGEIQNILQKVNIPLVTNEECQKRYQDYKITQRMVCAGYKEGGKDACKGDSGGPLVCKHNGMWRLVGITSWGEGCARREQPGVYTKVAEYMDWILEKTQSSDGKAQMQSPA
Sequence of human activated kallikrein enzyme (plasma kallikrein) (P03952 20-390 partner): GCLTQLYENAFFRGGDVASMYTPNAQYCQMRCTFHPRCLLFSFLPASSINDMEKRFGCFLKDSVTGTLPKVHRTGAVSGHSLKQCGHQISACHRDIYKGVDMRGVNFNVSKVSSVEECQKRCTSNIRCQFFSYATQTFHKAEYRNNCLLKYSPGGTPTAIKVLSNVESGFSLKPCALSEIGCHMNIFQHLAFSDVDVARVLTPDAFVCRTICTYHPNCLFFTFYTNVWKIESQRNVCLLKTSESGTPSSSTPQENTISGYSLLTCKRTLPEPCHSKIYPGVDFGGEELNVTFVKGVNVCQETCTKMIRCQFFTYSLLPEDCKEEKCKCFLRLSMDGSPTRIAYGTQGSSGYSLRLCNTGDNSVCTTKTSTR

pEC50 | Compound
8.00 to 9.00 | O=C(NCc1ncn2ccc(I)cc12)c1cnn(Cc2cn3cc(C4CC4)ccc3n2)c1 [Example I-45, 1-((6-cyclopropylimidazo[1,2-a]pyridin-2-yl)methyl)-N-((7-iodoimidazo[1,5-a]pyridin-1-yl)methyl)-1H-pyrazole-4-carboxamide]
7.00 to 8.00 | CCc1cccc2nc(Cn3cc(C(=O)NCc4ncn5ccc(Cl)cc45)cn3)cn12 [Example I-46, N-((7-chloroimidazo[1,5-a]pyridin-1-yl)methyl)-1-((5-ethylimidazo[1,2-a]pyridin-2-yl)methyl)-1H-pyrazole-4-carboxamide]
8.00 to 9.00 | C/C=C\c1ccc2nc(Cn3cc(C(=O)NCc4ncn5ccc(Cl)cc45)cn3)cn2c1 [Example I-47, (Z)—N-((7-chloroimidazo[1,5-a]pyridin-1-yl)methyl)-1-((6-(prop-1-en-1-yl)imidazo[1,2-a]pyridin-2-yl)methyl)-1H-pyrazole-4-carboxamide]
5.70 to 7.00 | O=C(NCc1ncn2ccc(C3CC3)cc12)c1cnn(Cc2cn3cc(C4CC4)ccc3n2)c1 [Example I-48, 1-((6-cyclopropylimidazo[1,2-a]pyridin-2-yl)methyl)-N-((7-cyclopropylimidazo[1,5-a]pyridin-1-yl)methyl)-1H-pyrazole-4-carboxamide]
7.00 to 8.00 | CC1(C)CC1c1ccn2cc(Cn3cc(C(=O)NCc4ncn5ccc(Br)cc45)cn3)nc2c1 (stereo not shown) [Example I-49, N-((7-bromoimidazo[1,5-a]pyridin-1-yl)methyl)-1-((7-(2,2-dimethylcyclopropyl)imidazo[1,2-a]pyridin-2-yl)methyl)-1H-pyrazole-4-carboxamide]
5.70 to 7.00 | Nc1ccc2c(CNC(=O)c3cnn(Cc4cn5cc(C6CC6)ccc5n4)c3)ncn2c1 [Example I-53, N-((6-aminoimidazo[1,5-a]pyridin-1-yl)methyl)-1-((6-cyclopropylimidazo[1,2-a]pyridin-2-yl)methyl)-1H-pyrazole-4-carboxamide]
7.00 to 8.00 | N#Cc1cccc2nc(Cn3cc(C(=O)NCc4ncn5ccc(Cl)cc45)cn3)cn12 [Example I-54, N-((7-chloroimidazo[1,5-a]pyridin-1-yl)methyl)-1-((5-cyanoimidazo[1,2-a]pyridin-2-yl)methyl)-1H-pyrazole-4-carboxamide]
8.00 to 9.00 | O=C(NCc1ncn2ccc(Br)cc12)c1cnn(Cc2cc3cc(C4CC4)ccn3n2)c1 [Example I-56, N-((7-bromoimidazo[1,5-a]pyridin-1-yl)methyl)-1-((5-cyclopropylpyrazolo[1,5-a]pyridin-2-yl)methyl)-1H-pyrazole-4-carboxamide]
8.00 to 9.00 | Cc1ccc2nc(Cn3cc(C(=O)NCc4ncn5c(N)cc(Cl)cc45)cn3)cn2c1 [Example I-58, N-((5-amino-7-chloroimidazo[1,5-a]pyridin-1-yl)methyl)-1-((6-methylimidazo[1,2-a]pyridin-2-yl)methyl)-1H-pyrazole-4-carboxamide]
8.00 to 9.00 | O=C(NCc1ncn2ccc(Cl)cc12)c1cnn(Cc2cn3cc(C4CCC4)ccc3n2)c1 [Example I-61, N-((7-chloroimidazo[1,5-a]pyridin-1-yl)methyl)-1-((6-cyclobutylimidazo[1,2-a]pyridin-2-yl)methyl)-1H-pyrazole-4-carboxamide]
5.70 to 7.00 | O=C(NCc1ncn2ccc(Cl)cc12)c1cnn(Cc2cn3c(CO)cccc3n2)c1 [Example I-62, N-((7-chloroimidazo[1,5-a]pyridin-1-yl)methyl)-1-((5-(hydroxymethyl)imidazo[1,2-a]pyridin-2-yl)methyl)-1H-pyrazole-4-carboxamide]
7.00 to 8.00 | COc1cccc2nc(Cn3cc(C(=O)NCc4ncn5ccc(Cl)cc45)cn3)cn12 [Example I-63, N-((7-chloroimidazo[1,5-a]pyridin-1-yl)methyl)-1-((5-methoxyimidazo[1,2-a]pyridin-2-yl)methyl)-1H-pyrazole-4-carboxamide]
8.00 to 9.00 | Cc1ccc2nc(Cn3cc(C(=O)NCc4ncn5ccc(Cl)cc45)cn3)cn2c1 [Example I-64, N-((7-chloroimidazo[1,5-a]pyridin-1-yl)methyl)-1-((6-methylimidazo[1,2-a]pyridin-2-yl)methyl)-1H-pyrazole-4-carboxamide]
> 9.00 | COC(=O)CCc1nn(Cc2cn3cc(C4CC4)ccc3n2)cc1C(=O)NCc1ncn2ccc(Cl)cc12 [Example I-65, methyl 3-(4-(((7-chloroimidazo[1,5-a]pyridin-1-yl)methyl)carbamoyl)-1-((6-cyclopropylimidazo[1,2-a]pyridin-2-yl)methyl)-1H-pyrazol-3-yl)propanoate]
> 9.00 | C#Cc1ccn2cnc(CNC(=O)c3cnn(Cc4cn5cc(C6CC6)ccc5n4)c3)c2c1 [Example I-66, 1-((6-cyclopropylimidazo[1,2-a]pyridin-2-yl)methyl)-N-((7-ethynylimidazo[1,5-a]pyridin-1-yl)methyl)-1H-pyrazole-4-carboxamide]
7.00 to 8.00 | CCc1ccn2cnc(CNC(=O)c3cnn(Cc4cn5cc(C6CC6)ccc5n4)c3)c2c1 [Example I-67, 1-((6-cyclopropylimidazo[1,2-a]pyridin-2-yl)methyl)-N-((7-ethylimidazo[1,5-a]pyridin-1-yl)methyl)-1H-pyrazole-4-carboxamide]
> 9.00 | O=C(NCc1ncn2ccc(Br)cc12)c1cnn(Cc2cn3nc(C4CC4)ccc3n2)c1 [Example I-68, N-((7-bromoimidazo[1,5-a]pyridin-1-yl)methyl)-1-((6-cyclopropylimidazo[1,2-b]pyridazin-2-yl)methyl)-1H-pyrazole-4-carboxamide]
5.70 to 7.00 | O=C(NCc1ncn2ccc(Cl)cc12)c1cnn(Cc2cn3ccccc3n2)c1 [Example I-69, N-((7-chloroimidazo[1,5-a]pyridin-1-yl)methyl)-1-(imidazo[1,2-a]pyridin-2-ylmethyl)-1H-pyrazole-4-carboxamide]
7.00 to 8.00 | O=C(NCc1ncn2ccc(Cl)cc12)c1nnc(Cc2cn3cc(C4CC4)ccc3n2)s1 [Example I-70, N-((7-chloroimidazo[1,5-a]pyridin-1-yl)methyl)-5-((6-cyclopropylimidazo[1,2-a]pyridin-2-yl)methyl)-1,3,4-thiadiazole-2-carboxamide]
> 9.00 | O=C(O)CCc1nn(Cc2cn3cc(C4CC4)ccc3n2)cc1C(=O)NCc1ncn2ccc(Cl)cc12 [Example I-73, 3-(4-(((7-chloroimidazo[1,5-a]pyridin-1-yl)methyl)carbamoyl)-1-((6-cyclopropylimidazo[1,2-a]pyridin-2-yl)methyl)-1H-pyrazol-3-yl)propanoic acid]
8.00 to 9.00 | CC(NC(=O)c1cnn(Cc2cn3cc(C4CC4)ccc3n2)c1)c1ncn2ccc(Br)cc12 (stereo not shown) [Example I-74, N-(1-(7-bromoimidazo[1,5-a]pyridin-1-yl)ethyl)-1-((6-cyclopropylimidazo[1,2-a]pyridin-2-yl)methyl)-1H-pyrazole-4-carboxamide]

Compound | pEC50
O=C(NCc1ncn2ccc(Cl)cc12)c1nnc(Cc2cn3cc(C4CC4)ccc3n2)o1 [Example I-51, N-((7-chloroimidazo[1,5-a]pyridin-1-yl)methyl)-5-((6-cyclopropylimidazo[1,2-a]pyridin-2-yl)methyl)-1,3,4-oxadiazole-2-carboxamide] | > 9.00
O=C(NCc1ncn2ccc(Br)cc12)c1nnc(Cc2cn3cc(C4CC4)ccc3n2)o1 [Example I-52, N-((7-bromoimidazo[1,5-a]pyridin-1-yl)methyl)-5-((6-cyclopropylimidazo[1,2-a]pyridin-2-yl)methyl)-1,3,4-oxadiazole-2-carboxamide] | > 9.00
N#Cc1cccc2nc(Cn3cc(C(=O)NCc4ncn5ccc(Br)cc45)cn3)cn12 [Example I-55, N-((7-bromoimidazo[1,5-a]pyridin-1-yl)methyl)-1-((5-cyanoimidazo[1,2-a]pyridin-2-yl)methyl)-1H-pyrazole-4-carboxamide] | 7.00 to 8.00
O=C(NCc1ncn2ccc(Cl)cc12)c1cnn(Cc2cn3c(F)c(C4CC4)ccc3n2)c1 [Example I-59, N-((7-chloroimidazo[1,5-a]pyridin-1-yl)methyl)-1-((6-cyclopropyl-5-fluoroimidazo[1,2-a]pyridin-2-yl)methyl)-1H-pyrazole-4-carboxamide] | > 9.00
O=C(NCc1ncn2ccc(Br)cc12)c1cnn(Cc2cn3c(F)c(C4CC4)ccc3n2)c1 [Example I-60, N-((7-bromoimidazo[1,5-a]pyridin-1-yl)methyl)-1-((6-cyclopropyl-5-fluoroimidazo[1,2-a]pyridin-2-yl)methyl)-1H-pyrazole-4-carboxamide] | > 9.00
CCOC(=O)c1cc(C2CC2)cn2cc(Cn3cc(C(=O)NCc4ncn5ccc(Cl)cc45)cn3)nc12 [Example I-71, ethyl 2-((4-(((7-chloroimidazo[1,5-a]pyridin-1-yl)methyl)carbamoyl)-1H-pyrazol-1-yl)methyl)-6-cyclopropylimidazo[1,2-a]pyridine-8-carboxylate] | > 9.00
O=C(NCc1ncn2ccc(Cl)cc12)c1cnn(Cc2cn3cc(C4CC4)cc(C(=O)O)c3n2)c1 [Example I-72, 2-((4-(((7-chloroimidazo[1,5-a]pyridin-1-yl)methyl)carbamoyl)-1H-pyrazol-1-yl)methyl)-6-cyclopropylimidazo[1,2-a]pyridine-8-carboxylic acid] | 8.00 to 9.00
